From PMC11285371 (Journal of medicinal chemistry, 2023)
Several values for one entry are separate records, joined by “and”; a condition that tells them apart may be missing. Equal values may be shown once. Entries after “also recorded” stand apart in the source; their conditions may differ.

Legend:
[1] = system: 15 mammalian cell lines; details: cited from earlier work
[2] = system: drug-tolerant Mtb persisters; type: cell-based, Mycobacterium tuberculosis
[3] = system: Cas1 glioblastoma cell line; details: cited from earlier work
[4] = cited from earlier work
[5] = target: T1, TGFBR1 (Homo sapiens, UniProt P36897); experiment: TGFBR1 DiscoverX KINOMEscan binding assay
T1 sequence (P36897 34-503): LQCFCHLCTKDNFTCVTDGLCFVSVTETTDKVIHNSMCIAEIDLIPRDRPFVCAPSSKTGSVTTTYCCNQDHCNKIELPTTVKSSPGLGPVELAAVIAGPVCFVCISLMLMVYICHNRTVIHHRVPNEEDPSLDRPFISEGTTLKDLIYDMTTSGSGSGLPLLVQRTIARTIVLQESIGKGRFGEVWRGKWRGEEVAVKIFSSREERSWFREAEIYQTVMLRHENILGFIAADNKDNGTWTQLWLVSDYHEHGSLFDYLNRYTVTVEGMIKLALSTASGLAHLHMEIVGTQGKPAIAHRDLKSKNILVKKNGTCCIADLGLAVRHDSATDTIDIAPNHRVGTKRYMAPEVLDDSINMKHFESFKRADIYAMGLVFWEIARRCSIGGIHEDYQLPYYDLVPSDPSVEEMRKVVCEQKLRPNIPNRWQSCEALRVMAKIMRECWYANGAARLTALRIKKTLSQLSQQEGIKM

[6] = 0.5 h
[7] = system: Mtb H37Rv::luxCDAB; type: cell-based, Mycobacterium tuberculosis
[8] = in vivo; details: CD1, mouse, po, 10 mg/kg, T1/2
[9] = system: 192 human kinases; details: 10 μM, K192 NanoBRET panel
[10] = target: T1, TGFBR1; type: biochemical
[11] = system: Mtb H37Rv strain expressing GFP; experiment: microbe, parasite or virus in culture; type: cell-based; details: Mycobacterium tuberculosis

Structure (SMILES) | metabolic stability in mouse liver microsomes (in words) [6] | activity in the Mtb assay (in words) [7] | other results
Cc1cccc(-c2nc(Nc3ccncc3)c3ccccc3n2)n1 [AQA] |  |  | toxicity against mammalian cell lines (in words) [1]: minimal toxicity; killing of persisters (cfu, in words) [2]: further reduction of viable bacteria; also recorded: full activity against persisters; toxicity against Cas1 glioblastoma cell line (in words) [3]: moderate toxicity; acute toxicity (in words) ([4]; 5 mg/kg p.o. in rats): no acute toxicity; bioavailability (in words) ([4]; 5 mg/kg p.o. in rats): poor; oral bioavailability (in words) ([4]; rats): modest oral bioavailability
CC[C@@H](CO)NCCN[C@@H](CC)CO [EMB, ethambutol] |  |  | killing of persisters (cfu, in words) [2]: did not increase the level of killing by RIF and INH further
Cc1cccc(-c2nc(Nc3ccc4nc(C)sc4c3)c3ccccc3n2)n1 [compound 7] | very low metabolic stability |  | TGFBR1 binding activity (in words) [5]: lost activity against TGFBR1
Cc1cccc(-c2nc(Nc3ccc4c(c3)ncn4C)c3ccccc3n2)n1 [compound 10] |  |  | antibacterial activity against nonreplicating Mtb (in words, relative to AQA) [7]: reduced bactericidal activity
Cc1cccc(-c2nc(Nc3ccc4[nH]ncc4c3)c3ccccc3n2)n1 [compound 11] | very low metabolic stability |  | 
Cc1cccc(-c2nc(Nc3ccc4c(cnn4C)c3)c3ccccc3n2)n1 [compound 12] | very low metabolic stability |  | 
Cc1cccc(-c2nc(Nc3ccc4nn[nH]c4c3)c3ccccc3n2)n1 [compound 14] |  |  | antibacterial activity against nonreplicating Mtb (in words, relative to AQA) [7]: reduced bactericidal activity
Cc1cccc(-c2nc(Nc3ccc4nn(C)nc4c3)c3ccccc3n2)n1 [compound 16] |  |  | half-life [8]: > 180 min
Cc1cccc(-c2nc(Nc3ccc4nnn(C)c4c3)c3ccccc3n2)n1 [compound 17] | very low metabolic stability |  | 
Cc1cccc(-c2nc(Nc3ccc4ccsc4c3)c3ccccc3n2)n1 [compound 22] | very low metabolic stability |  | 
Clc1cccc(-c2nc(Nc3ccncc3)c3ccccc3n2)n1 [compound 25] | comparable | retained potent antibacterial activity; also recorded: matched the activity of AQA in the Mtb assay | 
Fc1cccc(-c2nc(Nc3ccncc3)c3ccccc3n2)n1 [compound 26] |  | reduced activity | 
FC(F)(F)c1cccc(-c2nc(Nc3ccncc3)c3ccccc3n2)n1 [compound 27] |  | reduced activity | 
COc1cccc(-c2nc(Nc3ccncc3)c3ccccc3n2)n1 [compound 28] |  | greatly reduced activity | 
c1ccc(-c2nc(Nc3ccncc3)c3ccccc3n2)nc1 [compound 29] | comparable | reduced activity | 
c1cncc(-c2nc(Nc3ccncc3)c3ccccc3n2)c1 [compound 30] |  | inactive | 
c1ccc2c(Nc3ccncc3)nc(-c3cnccn3)nc2c1 [compound 31] |  | greatly reduced Mtb activity | 
COc1cncc(-c2nc(Nc3ccncc3)c3ccccc3n2)n1 [compound 32] |  | greatly reduced Mtb activity | 
c1cnc(-c2nc(Nc3ccncc3)c3ccccc3n2)nc1 [compound 33] |  | greatly reduced Mtb activity | 
Cc1csc(-c2nc(Nc3ccncc3)c3ccccc3n2)n1 [compound 39] |  | lost activity against Mtb | 
COc1ccc2nc(-c3cccc(C)n3)nc(Nc3ccncc3)c2c1 [compound 40] | improved metabolic stability | retained both potent bactericidal activity and TGFBR1 enzyme inhibition at 1 and 10 μM; also recorded: matched the activity of AQA in the Mtb assay | 
Cc1cccc(-c2nc(Nc3ccncc3)c3cc(O)ccc3n2)n1 [compound 41] | improved metabolic stability | less active | 
COc1ccc2c(Nc3ccncc3)nc(-c3cccc(C)n3)nc2c1 [compound 42] |  | less active | 
Cc1cccc(-c2nc(Nc3ccncc3)c3ccn(C)c3n2)n1 [compound 43] |  | retained potent Mtb activity; also recorded: matched the activity of AQA in the Mtb assay; also recorded: low-micromolar activity against nonreplicating Mtb | additional human kinases on which the compound was active [9]: 7/192
Cc1cccc(-c2nc(C)cc(Nc3ccncc3)n2)n1 [compound 44] |  | retained partial Mtb and TGFBR1 activity | TGFBR1 enzyme inhibition (in words) [10]: retained partial Mtb and TGFBR1 activity
Cc1cccc(-c2cc3ccccc3c(Nc3ccncc3)n2)n1 [compound 45] |  | weaker activity | 
Cc1cccc(-c2cc(Nc3ccncc3)c3ccccc3n2)n1 [compound 46] |  | weaker activity | 
NNC(=O)c1ccncc1 [isoniazid] |  |  | MIC [11]: 3.6 µM and 0.5 µg/mL
